Structures are written as SMILES.

The subject of one assay is MCF7. The experiment in a line: Antiproliferative activity against MCF7 cells. Format: functional, cell-based. The settings on record: Homo sapiens.
The nature of assay [1]: Antiproliferative activity against ID8 cells. The format is functional, cell-based. Conditions: Mus musculus.
Assay [2] concerns the target Cyclin-dependent kinase 2/cyclin A (Homo sapiens, UniProt P24941). The experiment in a line: Inhibition of CDK2/Cyclin A. Format: protein-complex assay.

The IC50 is the concentration at which inhibition is half-maximal. Take `CC(C)(C)OC(=O)N[C@@H](Cc1ccccc1)C(=O)Nc1ccc(O)c2c(=O)cc(-c3ccccc3Cl)oc12`: the values for the IC50 (in the assay with MCF7; in assay [1]; in assay [2]) were 7.1 µM, 5.3 µM and 417 µM, respectively.
The matching figures for `O=C(Nc1ccc(O)c2c(=O)cc(-c3ccccc3Cl)oc12)c1ccc(Cl)cc1`: 4.6 µM, 5.5 µM and 417 µM.
Consider `CSCC[C@@H](NC(=O)OC(C)(C)C)C(=O)Nc1ccc(O)c2c(=O)cc(-c3ccccc3Cl)oc12`, for which the results for the IC50 (with MCF7; in assay [1]) were 2.8 µM and 13 µM, respectively.
For `Cc1ccc(C(=O)Nc2c(O)cc(O)c3c(=O)cc(-c4ccccc4Cl)oc23)cc1`, the IC50 with MCF7 was determined as 9.7 µM; in assay [2], 90 µM.
For `O=C(Nc1c(O)cc(O)c2c(=O)cc(-c3ccccc3Cl)oc12)c1ccccc1`, the IC50 was 8.5 µM in the assay with MCF7 and 91 µM in assay [2].
The like results for `O=C(Nc1c(O)cc(O)c2c(=O)cc(-c3ccccc3Cl)oc12)c1ccc(Cl)cc1` were, in that order, 13 µM and 339 µM.
Consider `CC(C)(C)OC(=O)N[C@H](Cc1ccccc1)C(=O)Nc1ccc(O)c2c(=O)cc(-c3ccccc3Cl)oc12`, for which the half-maximal inhibitory concentration (IC50) was found to be 4.5 µM with MCF7, 12 µM in assay [1] and 417 µM in assay [2].
Take `C[C@H](NC(=O)OC(C)(C)C)C(=O)Nc1ccc(O)c2c(=O)cc(-c3ccccc3Cl)oc12`: the results for the IC50 (in the assay on MCF7; in assay [1]; in assay [2]) were 5.5 µM, 9.8 µM and 417 µM, respectively.
With `CSCC[C@H](NC(=O)OC(C)(C)C)C(=O)Nc1ccc(O)c2c(=O)cc(-c3ccccc3Cl)oc12`, the IC50 worked out at 20 µM with MCF7 and 6.2 µM in assay [1].
Consider `Cc1ccc(C(=O)Nc2ccc(O)c3c(=O)cc(-c4ccccc4Cl)oc23)cc1`, for which the values for the 50% inhibitory concentration (IC50) (with MCF7; in assay [1]) were 10 µM and 16 µM, respectively.
For `COc1ccc(C(=O)Nc2c(O)cc(O)c3c(=O)cc(-c4ccccc4Cl)oc23)cc1`, the figures for the IC50 (with MCF7; in assay [2]) were 13 µM and 54 µM, respectively.
As for `CC(C)C[C@@H](NC(=O)OC(C)(C)C)C(=O)Nc1ccc(O)c2c(=O)cc(-c3ccccc3Cl)oc12`, the concentration for half-maximal inhibition (IC50) in assay [1] is 17 µM; in assay [2], 417 µM.
Turning to `CCC(C)OC(=O)Nc1ccc(O)c2c(=O)cc(-c3ccccc3Cl)oc12` (stereo not given), the half-inhibitory concentration (IC50) in the assay with MCF7 amounted to 30 µM; in assay [1], 18 µM; in assay [2], 417 µM.
Regarding `C[C@@H](NC(=O)OC(C)(C)C)C(=O)Nc1ccc(O)c2c(=O)cc(-c3ccccc3Cl)oc12`, the IC50 in the assay on MCF7 was 5.5 µM; in assay [1] it was 104 µM.
Regarding `O=c1cc(-c2ccccc2Cl)oc2c(N3CCOCC3)ccc(O)c12`, the IC50 came to 20 µM with MCF7, 7.9 µM in assay [1] and 417 µM in assay [2].
The matching figures for `O=C(Nc1ccc(O)c2c(=O)cc(-c3ccccc3Cl)oc12)c1ccc(Cl)c(Cl)c1`: 15 µM, 13 µM and 217 µM.
Take `COc1ccc(C(=O)Nc2ccc(O)c3c(=O)cc(-c4ccccc4Cl)oc23)cc1`: the values for the half-maximal inhibitory concentration (IC50) (in the assay with MCF7; in assay [1]; in assay [2]) were 3.5 µM, 5 µM and 383 µM, respectively.
In the case of `O=C(Nc1ccc(O)c2c(=O)cc(-c3ccccc3Cl)oc12)c1ccccc1`, the IC50 in the assay on MCF7 is 7.1 µM; in assay [1], 13 µM; in assay [2], 417 µM.
On to `CC(C)C[C@H](NC(=O)OC(C)(C)C)C(=O)Nc1ccc(O)c2c(=O)cc(-c3ccccc3Cl)oc12`, for which the IC50 came to 4 µM in the assay with MCF7, 5.1 µM in assay [1] and 417 µM in assay [2].
As to `CN1CC[C@H](c2c(O)cc(O)c3c(=O)cc(-c4ccccc4Cl)oc23)[C@H](O)C1` [ALVOCIDIB], the IC50 in the assay with MCF7 came out at 0.026 µM; in assay [1], 0.007 µM.
